Legend:
[1] = tested on: K562 (FLT3 negative expression, positive expression of BCR-ABL fusion protein); assay: In vitro growth inhibition (GI50), K562; type: cell-based; settings: Homo sapiens, Cell lines of leukemia, read-out: GI 50 K562 BCR-ABL
[2] = tested on: RS4; 11 (FLT3 wild type); assay: In vitro growth inhibition (GI50), RS4; 11; type: cell-based, human; settings: Homo sapiens, RS4-11; Cell lines of leukemia; read-out: GI 50 RS4: 11 FLT3 (WT)
[3] = tested on: MOLM-13 (FLT3 ITD+/− mutant type); assay: In vitro growth inhibition (GI50), MOLM-13; type: cell-based, human; settings: Homo sapiens, MOLM-13; Cell lines of leukemia; read-out: GI 50 MOLM-13 FLT3 (ITD+/−)
[4] = tested on: OCI-AML3 (NPMc+ mutant type); assay: In vitro growth inhibition (GI50), OCI-AML3; type: cell-based; settings: Homo sapiens, OCI-AML-3; Cell lines of leukemia; read-out: GI 50 OCI- AML3 NPMc+
[5] = tested on: Kasumi-1 (c-Kit N822K mutant type); assay: In vitro growth inhibition (GI50), Kasumi-1; type: cell-based; settings: Homo sapiens, Cell lines of leukemia, read-out: GI 50 Kasumi-1 Kit (N822K)
Outline: (§1)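 After 3–5 days of treatment (top concentration 5,000 nM, serially diluted 2- or 10-fold to 0.01 nM, solvent ≤1%), viability was read by CCK8 at OD450. Growth rate was normalised to the time-zero and solvent-control wells, and GI50 was derived from the curve. Cultures in RPMI1640 + 10% FBS.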

[6] = tested on: MV4-11 (FLT3 ITD+/+ mutant type); assay: In vitro growth inhibition (GI50), MV4-11; type: cell-based, human; settings: Homo sapiens, MV4-11; Cell lines of leukemia; read-out: GI 50 MV4-11 FLT3 (ITD +/+)
[7] = tested on: U937 (FLT3 wild-type); assay: In vitro growth inhibition (GI50), U937; type: cell-based; settings: Homo sapiens, U-937; Cell lines of leukemia; read-out: GI 50 U937 FLT 3(WT)
[8] = tested on: KG-1 (expressing FGFR1OP2-FGFR1 fusion protein); assay: In vitro growth inhibition (GI50), KG-1; type: cell-based; settings: Homo sapiens; Cell lines of leukemia; read-out: GI 50 KG-1 FGFR1OP 2-FGFR1
[9] = tested on: HL-60 (FLT3 wild type); assay: In vitro growth inhibition (GI50), HL-60; type: cell-based; settings: Homo sapiens, Cell lines of leukemia, read-out: GI 50 HL60 FLT3 (WT)
Outline: as §1

[10] = tested on: RAMOS (positive expression of Brutons tyrosine protein kinase); assay: In vitro growth inhibition (GI50), RAMOS; type: cell-based; settings: Homo sapiens, Cell lines of leukemia, read-out: GI 50 Ramos BTK

Row | SMILES | GI50 [1] | GI50 [2] | GI50 [3] | GI50 [4] | GI50 [6] | GI50 [7] | GI50 [9] | GI50 [10] | GI50 [5] | GI50 [8]
1 | CC(C)Oc1ccc2c(c1)ncn2-c1ccc(NC(=O)Nc2cc(C(C)(C)C)n[nH]2)cc1 [Compound 74, 1-(5-tert-butyl-2H-pyrazol-3-yl)-3-[4-(5-isopropoxy-benzimidazol-1-yl)-phenyl]-urea] | > 1000 nM | > 1000 nM | 0.1 to 1 nM | > 1000 nM | 0.1 to 1 nM | > 1000 nM | > 1000 nM | > 1000 nM | > 1000 nM | > 1000 nM
2 | CN1CCN(CCCOc2ccc3c(c2)ncn3-c2ccc(NC(=O)n3nc(C(C)(C)C)cc3N)cc2)CC1 [Compound 118, 5-amino-3-tert-butyl-pyrazol-1-carboxylic acid (4-{5-[3-(4-methyl-piperazin-1-yl)-propoxyl]-benzimidazol-1-yl}-phenyl)-amide] | > 1000 nM | > 1000 nM | 1 to 10 nM | > 1000 nM | 1 to 10 nM | > 1000 nM | > 1000 nM | > 1000 nM | > 1000 nM | > 1000 nM
3 | CC(C)(C)c1cc(NC(=O)Nc2cnc(-n3cnc4ccccc43)nc2)no1 [Compound 43, 1-(2-benzimidazol-1-yl-pyrimidin-5-yl)-3-(5-tert-butyl-isoxazol-3-yl)-urea] | > 1000 nM | > 1000 nM | 10 to 100 nM | > 1000 nM | 10 to 100 nM | > 1000 nM | > 1000 nM | > 1000 nM | > 1000 nM | > 1000 nM
4 | CC(C)(C)c1cc(NC(=O)Nc2ccc(-n3cnc4ccccc43)cc2)n(-c2ccccc2)n1 [Compound 104, 1-(4-benzimidazol-1-yl-phenyl)-3-(5-tert-butyl-2-phenyl-2H-pyrazol-3-yl)-urea] | > 1000 nM | > 1000 nM | 0.1 to 1 nM | > 1000 nM | 0.1 to 1 nM | > 1000 nM | > 1000 nM | > 1000 nM | > 1000 nM | > 1000 nM
5 | CCOc1ccc2c(c1)ncn2-c1ccc(NC(=O)Nc2cc(C(C)(C)C)n[nH]2)cc1 [Compound 72, 1-(5-tert-butyl-2H-pyrazol-3-yl)-3-[4-(5-ethoxyl-benzimidazol-1-yl)-phenyl]-urea] | > 1000 nM | > 1000 nM | 0.1 to 1 nM | > 1000 nM | 0.1 to 1 nM | > 1000 nM | > 1000 nM | > 1000 nM | > 1000 nM | > 1000 nM
6 | CC(C)(C)c1cc(NC(=O)Nc2ccc(-n3cnc4cc(OCC5CCCCO5)ccc43)cc2)[nH]n1 (stereo not drawn) [Compound 87, 1-(5-tert-butyl-2H-pyrazol-3-yl)-3-{4-[5-(tetrahydro-pyran-2-ylmethoxy)-benzimidazol-1-yl]-phenyl}-urea] | > 1000 nM | > 1000 nM | 0.1 to 1 nM | > 1000 nM | 0.1 to 1 nM | > 1000 nM | > 1000 nM | > 1000 nM | > 1000 nM | > 1000 nM
7 | CN(C)CCN(C)c1ccc2ncn(-c3ccc(NC(=O)Nc4cc(C(C)(C)C)on4)cc3)c2c1 [Compound 28, 1-(5-tert-butyl-isoxazol-3-yl)-3-(4-{6-[(2-dimethylamino-ethyl)-methyl-amino]-benzimidazol-1-yl}-phenyl)-urea] | > 1000 nM | > 1000 nM | 1 to 10 nM | > 1000 nM | 1 to 10 nM | > 1000 nM | > 1000 nM | > 1000 nM | > 1000 nM | > 1000 nM
8 | Cc1cc(F)cc2ncn(-c3ccc(NC(=O)Nc4cc(C(C)(C)C)n[nH]4)cc3)c12 [Compound 97, 1-(5-tert-butyl-2H-pyrazol-3-yl)-3-[4-(5-fluoro-7-methyl-benzimidazol-1-yl)-phenyl]-urea] | > 1000 nM | > 1000 nM | 1 to 10 nM | > 1000 nM | 1 to 10 nM | > 1000 nM | > 1000 nM | > 1000 nM | > 1000 nM | > 1000 nM
9 | CC(C)(C)c1cc(NC(=O)Nc2ccc(-n3cnc4ccccc43)cc2)n(CCO)n1 [Compound 103, 1-(4-benzimidazol-1-yl-phenyl)-3-[5-tert-butyl-2-(2-hydroxy-ethyl)-2H-pyrazol-3-yl]-urea] | > 1000 nM | > 1000 nM | 1 to 10 nM | > 1000 nM | 1 to 10 nM | > 1000 nM | > 1000 nM | > 1000 nM | > 1000 nM | > 1000 nM
10 | CNC(=O)c1cc(Oc2ccc3c(c2)ncn3-c2ccc(NC(=O)n3nc(C(C)(C)C)cc3N)cc2)ccn1 [Compound 127, 4-(1-{4-[(5-amino-3-tert-butyl-pyrazol-1-carbonyl)-amino]-phenyl}-1H-benzimidazol-5-yloxy)-pyridin-2-carboxylic acid methylamide] | > 1000 nM | > 1000 nM | 100 to 1000 nM | > 1000 nM | 100 to 1000 nM | > 1000 nM | > 1000 nM | > 1000 nM | > 1000 nM | > 1000 nM

More lines, main results first:

Row | GI50 [1] | GI50 [2] | GI50 [3] | GI50 [4] | GI50 [6] | GI50 [7] | GI50 [9] | GI50 [10] | SMILES | GI50 [5] | GI50 [8]
11 | > 1000 nM | > 1000 nM | 10 to 100 nM | 100 to 1000 nM | 10 to 100 nM | > 1000 nM | > 1000 nM | > 1000 nM | Cc1ccnc2c1ncn2-c1ccc(NC(=O)Nc2cc(C(C)(C)C)on2)cc1 [Compound 55, 1-(5-tert-butyl-isoxazol-3-yl)-3-[4-(7-methylimidazo[4,5-b]pyridin-3-yl)-phenyl]-urea] | > 1000 nM | > 1000 nM
12 | > 1000 nM | > 1000 nM | 0.1 to 1 nM | > 1000 nM | 0.1 to 1 nM | > 1000 nM | > 1000 nM | > 1000 nM | COc1ccc2c(c1)ncn2-c1ccc(NC(=O)Nc2cc(C(C)(C)C)on2)cc1 [Compound 5, 1-(5-tert-butyl-isoxazol-3-yl)-3-[4-(5-methoxyl-benzimidazol-1-yl)-phenyl]-urea] | > 1000 nM | > 1000 nM
13 | > 1000 nM | > 1000 nM | 1 to 10 nM | > 1000 nM | 1 to 10 nM | > 1000 nM | > 1000 nM | > 1000 nM | Cc1ccc2ncn(-c3ccc(NC(=O)Nc4cc(C(C)(C)C)on4)cc3)c2n1 [Compound 54, 1-(5-tert-butyl-isoxazol-3-yl)-3-[4-(5-methylimidazo[4,5-b]pyridine-3-yl)-phenyl]-urea] | > 1000 nM | > 1000 nM
14 | > 1000 nM | > 1000 nM | 1 to 10 nM | > 1000 nM | 1 to 10 nM | > 1000 nM | > 1000 nM | > 1000 nM | Cc1cc2ncn(-c3ccc(NC(=O)Nc4cc(C(C)(C)C)on4)cc3)c2cc1C [Compound 32, 1-(5-tert-butyl-isoxazol-3-yl)-3-[4-(5,6-dimethyl-benzimidazol-1-yl)-phenyl]-urea] | > 1000 nM | > 1000 nM
15 | > 1000 nM | > 1000 nM | 10 to 100 nM | > 1000 nM | 10 to 100 nM | > 1000 nM | > 1000 nM | > 1000 nM | COc1ncnc2c1ncn2-c1ccc(NC(=O)Nc2cc(C(C)(C)C)on2)cc1 [Compound 58, 1-(5-tert-butyl-isoxazol-3-yl)-3-[4-(6-methoxylpurin-9-yl)-phenyl]-urea] | > 1000 nM | > 1000 nM

— patent US10647680B2, “Urea compound, preparation method therefor and medical use thereof” (Ancureall Pharmaceutical (Shanghai) Co., Ltd., priority 2016, dated 2020)
